# Results published in paper PMC4855151 (Scientific Reports, 2016).
# Target: Cut2 (cutinase 2) (Pyricularia oryzae, UniProt G4MZV6)
# Details: 12.5 nM Cut2, 0-8 mM substrate; assay buffer 25 mM NaH2PO4, pH 7.2
# Chain of Cut2 (cutinase 2) (G4MZV6 19-214 limits assumed): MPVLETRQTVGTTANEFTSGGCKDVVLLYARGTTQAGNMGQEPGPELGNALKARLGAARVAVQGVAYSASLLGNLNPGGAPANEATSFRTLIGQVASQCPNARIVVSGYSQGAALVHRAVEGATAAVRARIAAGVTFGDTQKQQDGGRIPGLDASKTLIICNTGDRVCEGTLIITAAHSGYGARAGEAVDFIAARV
structure (smiles),measurement,value
CCCC(=O)Oc1ccc([N+](=O)[O-])cc1 [p-nitrophenyl butyrate],kcat/Km,We determined kcat/Km for our recombinant Cut2 with p-nitrophenylbutyrate as substrate
